Consider five compounds from patent publication US20020198315A1, “Salts of peptides with carboxy-terminated polyesters” (priority 1992, published 2002).

The conditions of data set [1]: cited from earlier work.
The nature of data set [2]: Dissolution / solubility in dichloromethane. The class given is physicochemical. How it is done: To this solution was added trifluoroacetic acid (50 μl), and the mixture was stirred vigorously.
The drug solution was added to the copolymer solution and was mixed thoroughly. This mixture was then added dropwise to liquid nitrogen to freeze it as small beads. The solid material was freeze dried for two days using an Edwards high vacuum freeze drier, and the dried material was further dried at 50-55° C. in a vacuum oven for 24 hours.
The peptide known as Substance P, in the form of its acetate salt (ex Sigma, 2 mg) was added to dichloromethane (3 ml) and thoroughly agitated.
Lys^8-vasopressin acetate salt (2 mg, ex Sigma) was added to dichloromethane (3 ml) and agitated.
(i) Dichloromethane (4 ml) was added to a freeze-dried preparation of ZD6003 (39.72 mg).
A lactide/glycolide copolymer (75/25, 364.1 mg, Mw=16,800 by size exclusion chromatography, polydispersity=2.2, ex Boehringer Ingelheim) was added.

As to `CC(C)C[C@H](NC(=O)[C@@H](COC(C)(C)C)NC(=O)[C@H](Cc1ccc(O)cc1)NC(=O)[C@H](CO)NC(=O)[C@H](Cc1c[nH]c2ccccc12)NC(=O)[C@H](Cc1cnc[nH]1)NC(=O)[C@@H]1CCC(=O)N1)C(=O)N[C@@H](CCCNC(=N)N)C(=O)N1CCC[C@H]1C(=O)NNC(N)=O` [Goserelin acetate], the “goserelin in benzyl benzoate supernatant, in words” value (40° C., stirred, aliquots after 2 and 9 Days, limit of detection 0.2 μg/ml) is on record as “No goserelin was detectable in either sample”. For the same compound, under “at 40° C.”, the “equilibrium solubility of goserelin in benzyl benzoate (estimated)” value is given as “less than 0.2 μg/mg”. The “solubility in benzyl benzoate, in words” value (lipophilic solvents such as benzyl benzoate) is listed as “not soluble”. For the compound `CC(C)C[C@H](NC(=O)[C@@H](COC(C)(C)C)NC(=O)[C@H](Cc1ccc(O)cc1)NC(=O)[C@H](CO)NC(=O)[C@H](Cc1c[nH]c2ccccc12)NC(=O)[C@H](Cc1cnc[nH]1)NC(=O)[C@@H]1CCC(=O)N1)C(=O)N[C@@H](CCCNC(=N)N)C(=O)N1CCC[C@H]1C(=O)NNC(N)=O` [goserelin, [D-Ser(Bu^t)^6, Azgly^10]-LHRH], the metabolic half-life in data set [1] was 4 to 6 h. Turning to Lys^8-vasopressin acetate salt, the “behaviour in dichloromethane (dissolves or not), in words” value in data set [2] is recorded as “showed no indication of dissolving”. The same measure, in the same setting: in the case of Substance P it was “showed no indication of dissolving”; in that of “[Het^−1, Arg^11, Ser^17,27,60,65] human G-CSF (granulocyte-colony stimulating factor) modified with polyethylene glycol 5000 [ZD6003]”, “opaque dispersion of drug in the solvent”.
